Laboratory results reported in patent US3937829A, “Medicinal preparation for treatment of various forms of leprosy” (priority 1973, dated 1976).

How the values were obtained:
[1] = toxicity with respect to warm-blooded animals
[2] = toxico-biological action during a three-month period (biochemical and histomorphological analyses); format: in vivo, white mice, rats and cats; conditions: compared to control animals
Description: Toxico-biological action of the preparation was studied in animals of the three species, viz., white mice, rats and cats. As a result, it was established that introduction of the medicinal preparation into an animal's organism during a three-month period provokes no changes, according to the data of biochemical and histomorphological analyses, in the internal organs, endocrine glands, brain, nerves and blood as compared to the control animals.

[3] = storage stability; format: physicochemical
Description: The medicinal preparation according to the invention for treatment of various forms of leprosy is stable when under long-term storage.

[4] = solubility and reaction of aqueous solutions; format: physicochemical
Procedure: (§1) The preparation is soluble in diluted alkalis, dimethylformamide and dimethysulfoxide. Aqueous solutions of the preparation give an acid reaction. M.p. of the preparation lies at 233°-234°C, at temperatures above 235°C it decomposes; the preparation withstands heating at 150°C during 2 hours, at 100°C during 5 hours without decomposition.

[5] = clinico-biochemical data and blood findings in leprosy patients; format: in vivo, human
[6] = concentration of sulfonic preparations in the blood during treatment; format: in vivo
Procedure: When determining the concentration of sulfonic preparations in the blood during treatment with diaminodiphenylsulfone, sulphetrone and the inventive preparations, it was observed that the concentration of the inventive preparation is twelve times as high as that of diaminodiphenylsulfone, both being administered as a powder at a dose of 0.1 g s.i.d. Futhermore, Injection of 2 ml of a 10 percent solution of the inventive preparation gave a concentration in the blood four times that which resulted from the introduction of 1 ml of 15-10 percent solution of sulphetrone.

[7] = system: lymphocytes of the human peripheral blood; experiment: influence upon the synthesis of RNA in lymphocytes; format: cell-based
Description: This may be considered as an evidence of possible differentiation of the lymphocytes or of potentiation of their specific function under the effect of the preparation.

[8] = thermal stability (heating); format: physicochemical
Procedure: as §1

[9] = system: lymphocytes; experiment: intracellular metabolism, RNA quantity in a cell and phagocytosis; format: cell-based, human
[10] = system: Mycobacterium leprae; experiment: clinical experiments on 99 leprosy patients, therapeutic effect; format: in vivo, human
[11] = human, in vivo

## Cc1[nH]c(=O)[nH]c(=O)c1S(=O)(=O)Nc1ccc(S(=O)(=O)c2ccc(NS(=O)(=O)c3c(C)[nH]c(=O)[nH]c3=O)cc2)cc1 [preparation, p,-p-bis(2,4-dioxy-6-methylpyrimidinyl-5-sulfonamido)diphenylsulfone]
[1]; in vivo
  LD50: 2600 mg/kg
[1]; white mice, rats, cats, vs diaminodiphenylsulfone
  toxicity relative to diaminodiphenylsulfone: one-fifth
[2]
  changes in internal organs, endocrine glands, brain, nerves and blood: no changes
[3]; darkness, 18°-25°C, 5 years
  retention of properties on storage: retain the appearance, melting point, IR-spectrum data, solubility and pH value of an aqueous solution
[3]; long-term storage
  storage stability: stable
[4]; 0.1-1-percent aqueous novocain solution
  solubility in aqueous novocain solution: sparingly soluble
[4]; aqueous solutions
  reaction of aqueous solutions: acid reaction
[4]; diluted alkalis
  solubility in diluted alkalis: soluble
[4]; dimethylformamide
  solubility in dimethylformamide: soluble
[4]; dimethysulfoxide
  solubility in dimethysulfoxide: soluble
[4]; ethyl alcohol
  solubility in ethyl alcohol: insoluble
[4]; physiological saline
  solubility in physiological saline: sparingly soluble
[4]; water
  solubility in water: sparingly soluble
[4]; water, solutions, read-out: concentration of the active principle above which the substance precipitates
  solubility: > 120 mg/mL
[5]; clinico-biochemical data
  anabolic effect: less manifested
  antipyretic effect: sharply pronounced
[5]; in the course of treatment
  amount of erythrocytes: increased amount of erythrocytes
  percentage of hemoglobin: higher percentage of hemoglobin
  protein metabolism: normalized protein metabolism
[6]; 2 ml of 10 percent solution injected vs 1 ml of 15-10 percent solution of sulphetrone
  concentration in the blood relative to sulphetrone: four
[6]; both as a powder, 0.1 g s.i.d.
  concentration in blood relative to diaminodiphenylsulfone: twelve
[7]; increased immune response
  toxicity and effect on protective power, as concluded from RNA synthesis: non-toxic and acts as a stimulant of the protective power of the organisms
[7]; lymphocytes of the human peripheral blood
  synthesis of RNA in lymphocytes: promotes the synthesis of RNA
[8]
  decomposition temperature: above 235 °C
[8]; 100°C
  withstands heating without decomposition: 5 h
[8]; 150°C
  withstands heating without decomposition: 2 h
[9]
  intracellular metabolism: promotes the processes of intracellular metabolism
  quantity of RNA in a cell: enhances the quantity of RNA in a cell
[9]; lepromatous form of leprosy
  differentiation of lymphocytes and phagocytosis: easier differentiation of the lymphocytes into phagocytic forms and to the completion of phagocytosis
[10]; 36 patients dismissed for ambulant therapy, following four years
  recurrence of the disease: None of the 36 patients
[10]; all patients resistant to sulfonic antileprotic preparations
  therapeutic effect in patients resistant to sulfonic antileprotic preparations: good therapeutic effect
[10]; histological examinations during the course of treatment
  transformation of the lepromatous form into the tuberculoid form: 7 patients
[10]; human, in vivo
  start of the regress of the disease: 3-6 weeks
[10]; in the course of treatment
  leprous reactions, neurites, inflammatory processes of the mucous membranes: disappeared
[10]; infiltrates, lepromas, causative agent, fibrosis
  character of the regress of the disease: resolution of infiltrates and lepromas, appearance of a great amount of granular forms of the causative agent and bacterial decomposition, as well as occurrence of a sharply marked fibrosis
[10]; patients resistant to sulfonic or some other antileprotic therapy
  effect in patients resistant to sulfonic or other antileprotic therapy: effective
[11]
  side effects: none of the patients was found to suffer from any side effect
